Reference: patent publication US7244431B2, “Allergy vaccines and their preparation” (priority 2000, dated 2007)

Tests used:
[1] = NMR analysis for residual secondary or tertiary structure; format: physicochemical; conditions: water solution
Method: NMR was then used to check for residual secondary or tertiary structure. Compared to other spectroscopical approaches, this technique has the advantage that it provides positional information along the sequence.
Peptides were examined for tertiary and/or secondary structure by one and two-dimensional nuclear magnetic resonance (NMR) on a UNITY VARIAN 600 MHz spectrometer equipped with z-shielded gradient coils using 0.8-1.0 mM samples in 90% H2O/10% D2O, 20 mM potassium phosphate buffer pH 7.0, at 20° C. […] Mixing times used were 70 ms and 150 or 200 ms for TOCSY and NOESY experiments, respectively.
The absence of ring current shifted peaks in the region of the spectra below 0.5 ppm typical of well folded proteins is also a feature common to the spectra of the Bet v 1 peptides (data not shown). […] This peptide (P5), that in the Bet v 1 structure spans the whole C-terminal helix probably tends to form helical structures that aggregate in water solution.

[2] = tested on: birch pollen allergic patients; assay: Skin prick testing of allergic patients; format: in vivo, human; conditions: 100 μg/ml
Method: SPTs were performed on the individuals forearms as described ([…]. et al. (1997) J. Clin Invest. 99, 1673-168; Dreborg S: (1989) J. Am. Acad. DerMatol. 21, 820-821). […] In addition standardized skin prick solutions (birch pollen extract and histamine) (Allergopharma, Reinbek, Germany) were tested. Reactions were recorded 20 minutes after SPT by photography and by transferring the ballpoint pen-surrounded wheal area with a scotch tape to paper.

[3] = tested on: IgE antibodies in sera from birch pollen allergic patients; assay: ELISA detection of peptide- and rBet v 1-specific IgE antibodies; format: binding, human
Summary of the method: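 Sera from 60 birch pollen allergic patients (rhinoconjunctivitis and/or asthma; skin prick and CAP RAST characterized) plus one non-atopic individual, diluted 1:3, incubated overnight at 4 °C on coated plates. Bound IgE detected with 1:1000 alkaline-phosphatase-coupled mouse anti-human IgE.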

With “CKAEQVKASKEMGETLLRAVESYLLAHSDAYN [Peptide P5, Bet v 1-derived synthetic peptide, position aa 130-160, one cysteine added]” the “aggregation (NMR)” value [1] was “unusually broad resonances suggesting aggregation”, the mean wheal diameter ([2]; individual 1) was 0 mm and the mean wheal diameter ([2]; individual 2) was 0 mm. The mean wheal diameter ([2]; individual 3) was 0 mm, the mean wheal diameter ([2]; individual 4) was 0 mm and the mean wheal diameter ([2]; individual 5) was 0 mm. The mean wheal diameter ([2]; individual 6 (allergic, without birch pollen allergy)) was 0 mm, the “IgE (OD)” value ([3]; serum of NHS, non-allergic control individual) was “— (Dashes indicate reactivities below the cut-off level (OD=0.050))” and the “IgE (OD)” value ([3]; serum of patient 1) was “— (Dashes indicate reactivities below the cut-off level (OD=0.050))”. The “IgE (OD)” value ([3]; serum of patient 2) was “— (Dashes indicate reactivities below the cut-off level (OD=0.050))”, the “IgE (OD)” value ([3]; serum of patient 3) was “— (Dashes indicate reactivities below the cut-off level (OD=0.050))” and the “IgE (OD)” value ([3]; serum of patient 4) was “— (Dashes indicate reactivities below the cut-off level (OD=0.050))”. The “IgE (OD)” value ([3]; serum of patient 5) was “— (Dashes indicate reactivities below the cut-off level (OD=0.050))”, the “IgE (OD)” value ([3]; serum of patient 6) was “— (Dashes indicate reactivities below the cut-off level (OD=0.050))” and the “IgE (OD)” value ([3]; serum of patient 7) was “— (Dashes indicate reactivities below the cut-off level (OD=0.050))”. The “IgE (OD)” value ([3]; serum of patient 8) was “— (Dashes indicate reactivities below the cut-off level (OD=0.050))”, the “IgE (OD)” value ([3]; serum of patient 9) was “— (Dashes indicate reactivities below the cut-off level (OD=0.050))” and the “IgE (OD)” value ([3]; serum of patient 10) was “— (Dashes indicate reactivities below the cut-off level (OD=0.050))”. The “IgE (OD)” value ([3]; serum of patient 11) was “— (Dashes indicate reactivities below the cut-off level (OD=0.050))”, the “IgE (OD)” value ([3]; serum of patient 12) was “— (Dashes indicate reactivities below the cut-off level (OD=0.050))” and the “IgE (OD)” value ([3]; serum of patient 13) was “— (Dashes indicate reactivities below the cut-off level (OD=0.050))”. The “IgE (OD)” value ([3]; serum of patient 14) was “— (Dashes indicate reactivities below the cut-off level (OD=0.050))”, the “IgE (OD)” value ([3]; serum of patient 15) was “— (Dashes indicate reactivities below the cut-off level (OD=0.050))” and the “IgE (OD)” value ([3]; serum of patient 16) was “— (Dashes indicate reactivities below the cut-off level (OD=0.050))”. For the same sequence, the “IgE (OD)” value ([3]; serum of patient 17) was “— (Dashes indicate reactivities below the cut-off level (OD=0.050))”, the “IgE (OD)” value ([3]; serum of patient 18) was “— (Dashes indicate reactivities below the cut-off level (OD=0.050))” and the “IgE (OD)” value ([3]; serum of patient 19) was “— (Dashes indicate reactivities below the cut-off level (OD=0.050))”. The “IgE (OD)” value ([3]; serum of patient 20) was “— (Dashes indicate reactivities below the cut-off level (OD=0.050))”, the “IgE (OD)” value ([3]; serum of patient 21) was “— (Dashes indicate reactivities below the cut-off level (OD=0.050))” and the “IgE (OD)” value ([3]; serum of patient 22) was “— (Dashes indicate reactivities below the cut-off level (OD=0.050))”. For the same sequence, the “IgE (OD)” value ([3]; serum of patient 23) was “— (Dashes indicate reactivities below the cut-off level (OD=0.050))”, the “IgE (OD)” value ([3]; serum of patient 24) was “— (Dashes indicate reactivities below the cut-off level (OD=0.050))” and the “IgE (OD)” value ([3]; serum of patient 25) was “— (Dashes indicate reactivities below the cut-off level (OD=0.050))”. The “IgE (OD)” value ([3]; serum of patient 26) was “— (Dashes indicate reactivities below the cut-off level (OD=0.050))”, the “IgE (OD)” value ([3]; serum of patient 27) was “— (Dashes indicate reactivities below the cut-off level (OD=0.050))” and the “IgE (OD)” value ([3]; serum of patient 28) was “— (Dashes indicate reactivities below the cut-off level (OD=0.050))”. For the same sequence, the “IgE (OD)” value ([3]; serum of patient 29) was “— (Dashes indicate reactivities below the cut-off level (OD=0.050))”, the “IgE (OD)” value ([3]; serum of patient 30) was “— (Dashes indicate reactivities below the cut-off level (OD=0.050))” and the “IgE (OD)” value ([3]; serum of patient 31) was “— (Dashes indicate reactivities below the cut-off level (OD=0.050))”. For the same sequence, the “IgE (OD)” value ([3]; serum of patient 32) was “— (Dashes indicate reactivities below the cut-off level (OD=0.050))”, the “IgE (OD)” value ([3]; serum of patient 33) was “— (Dashes indicate reactivities below the cut-off level (OD=0.050))” and the “IgE (OD)” value ([3]; serum of patient 34) was “— (Dashes indicate reactivities below the cut-off level (OD=0.050))”. The “IgE (OD)” value ([3]; serum of patient 35) was “— (Dashes indicate reactivities below the cut-off level (OD=0.050))”, the “IgE (OD)” value ([3]; serum of patient 36) was “— (Dashes indicate reactivities below the cut-off level (OD=0.050))” and the “IgE (OD)” value ([3]; serum of patient 37) was “— (Dashes indicate reactivities below the cut-off level (OD=0.050))”. For the same sequence, the “IgE (OD)” value ([3]; serum of patient 38) was “— (Dashes indicate reactivities below the cut-off level (OD=0.050))”, the “IgE (OD)” value ([3]; serum of patient 39) was “— (Dashes indicate reactivities below the cut-off level (OD=0.050))” and the “IgE (OD)” value ([3]; serum of patient 40) was “— (Dashes indicate reactivities below the cut-off level (OD=0.050))”. The “IgE (OD)” value ([3]; serum of patient 41) was “— (Dashes indicate reactivities below the cut-off level (OD=0.050))”, the “IgE (OD)” value ([3]; serum of patient 42) was “— (Dashes indicate reactivities below the cut-off level (OD=0.050))” and the “IgE (OD)” value ([3]; serum of patient 43) was “— (Dashes indicate reactivities below the cut-off level (OD=0.050))”. For the same sequence, the “IgE (OD)” value ([3]; serum of patient 44) was “— (Dashes indicate reactivities below the cut-off level (OD=0.050))”, the “IgE (OD)” value ([3]; serum of patient 45) was “— (Dashes indicate reactivities below the cut-off level (OD=0.050))” and the “IgE (OD)” value ([3]; serum of patient 46) was “— (Dashes indicate reactivities below the cut-off level (OD=0.050))”. For the same sequence, the “IgE (OD)” value ([3]; serum of patient 47) was “— (Dashes indicate reactivities below the cut-off level (OD=0.050))”, the “IgE (OD)” value ([3]; serum of patient 48) was “— (Dashes indicate reactivities below the cut-off level (OD=0.050))” and the “IgE (OD)” value ([3]; serum of patient 49) was “— (Dashes indicate reactivities below the cut-off level (OD=0.050))”. The “IgE (OD)” value ([3]; serum of patient 50) was “— (Dashes indicate reactivities below the cut-off level (OD=0.050))”, the “IgE (OD)” value ([3]; serum of patient 51) was “— (Dashes indicate reactivities below the cut-off level (OD=0.050))” and the “IgE (OD)” value ([3]; serum of patient 52) was “— (Dashes indicate reactivities below the cut-off level (OD=0.050))”. For the same sequence, the “IgE (OD)” value ([3]; serum of patient 53) was “— (Dashes indicate reactivities below the cut-off level (OD=0.050))”, the “IgE (OD)” value ([3]; serum of patient 54) was “— (Dashes indicate reactivities below the cut-off level (OD=0.050))” and the “IgE (OD)” value ([3]; serum of patient 55) was “— (Dashes indicate reactivities below the cut-off level (OD=0.050))”. The “IgE (OD)” value ([3]; serum of patient 56) was “— (Dashes indicate reactivities below the cut-off level (OD=0.050))”, the “IgE (OD)” value ([3]; serum of patient 57) was “— (Dashes indicate reactivities below the cut-off level (OD=0.050))” and the “IgE (OD)” value ([3]; serum of patient 58) was “— (Dashes indicate reactivities below the cut-off level (OD=0.050))”. The “IgE (OD)” value ([3]; serum of patient 59) was “— (Dashes indicate reactivities below the cut-off level (OD=0.050))” and the “IgE (OD)” value ([3]; serum of patient 60) was “— (Dashes indicate reactivities below the cut-off level (OD=0.050))”.
